Consider 3 molecules from the NIST ThermoML archive (doi:10.1016/j.jct.2008.08.013).

The conditions of this data set: 101.33 kPa, Liquid, Vibrating tube method.

± gives the expanded uncertainty stated by the source.

By mass density is commonly meant mass per unit of volume. Consider `Nc1ccccc1` [aniline], for which the mass density runs as follows: (288.15 K) 1025.93 ± 0.1 kg/m3; (293.15 K) 1021.04 ± 0.09 kg/m3; (298.15 K) 1017.1 ± 0.09 kg/m3; (303.15 K) 1012.84 ± 0.09 kg/m3.

Regarding `ClCCl` [dichloromethane], the mass density reads like this: (288.15 K) 1334.81 ± 0.18 kg/m3; (293.15 K) 1325.67 ± 0.18 kg/m3; (298.15 K) 1316.58 ± 0.17 kg/m3; (303.15 K) 1307.9 ± 0.17 kg/m3.

Turning to `O=[N+]([O-])c1ccccc1` [nitrobenzene], the mass density (288.15 K) worked out at 1211.53 ± 0.13 kg/m3, the mass density (293.15 K) is reported as 1202.61 ± 0.13 kg/m3, the mass density (298.15 K) was determined as 1198.01 ± 0.12 kg/m3 and the mass density (303.15 K) turned out to be 1193.5 ± 0.12 kg/m3.
